The values that follow come from patent US11160790B2, “Method of inhibiting Cryptococcus growth using eltrombopag” (priority 2019, dated 2021).

The structures appear in SMILES notation. ≈ marks a conversion by molar mass, not a printed value.

Assay [1] relates to multiple C. neoformans/C. gattii. Briefly: Microdilution assay, summary for Cryptococcus species. It counts as cell-based. The protocol: Cryptococcus and Candida species were cultured in yeast extract-peptone-dextrose (YPD) medium (containing 1% yeast extract, 2% peptone, 2% glucose, and optionally 2% agar for preparation of an agar plate). Aspergillus, Fusarium, and Trichophyton species were cultured on potato dextrose agar (PDA) plate (containing 2% potato infusion, […], and 1.5% agar). A microdilution assay was performed to determine minimum inhibitory concentration (MIC), minimum fungicidal concentration (MFC), and fractional inhibitory concentration (FIC) index (FICI) using RPMI 1640 medium buffered with MOPS. […]
To investigate the inhibitory effects of eltrombopag on the growth of fungi, microdilution assays (based on the CLSI standards M27-A3 and M38-A2) were performed with multiple pathogenic yeasts and filamentous fungi including Cryptococcus, Candida, Aspergillus, Fusarium, and Trichophyton (TABLE 1). […] Thereafter, 3 μL of the fungal culture from each well of the 96-well plates was spotted onto eltrombopag-free YPD (for yeasts) or PDA (for filamentous fungi) agar plates, which were then incubated at 35° C. for 48 hours to examine colony formation Minimum fungicidal concentration (MFC) was determined to be the lowest drug concentration at which no colonies formed. […]
(In broth dilution the organism is exposed to a series of concentrations in liquid medium.)

The test system of assay [2] is C. neoformans H99. Briefly: Growth kinetics in RPMI 1640 (cell density). The format is cell-based, Cryptococcus neoformans. The protocol:
To study the inhibitory effects of eltrombopag on the growth of Cryptococcus, C. neoformans H99 cells were cultured overnight at 30° C. and then washed twice with double-distilled water. The cells were diluted to 0.0005 OD600/mL with RPMI 1640 medium, and 5 mL of the cell suspension was treated with eltrombopag at 0.5, 0.25, 0.125, 0.06, or 0 mg/L and incubated at 37° C. with shaking at 150 rpm for 4 days. The cell density of the suspensions was measured every 12 hours with a SpectraMax190 microplate reader (Molecular Devices), and growth curves were plotted using Prism 5.03 (GraphPad Software, San Diego, Calif., USA). The experiments were performed in triplicate, and the results were presented as mean±standard deviation.

The subject of another assay is C. deuterogattii 8265. The assay can be described thus: Disk diffusion susceptibility assay. It counts as cell-based, Cryptococcus deuterogattii. The note with it: 10 μg per disk; 25° C., 30° C. or 37° C., 48 hours. As for the experimental part: A disk diffusion susceptibility assay was performed to further investigate the fungistatic activity of eltrombopag at different temperatures. Briefly, C. neoformans […] or C. deuterogattii 8265 was cultured overnight at 30° C., and 100 μL of the culture (at an OD600 of about 0.1) was spread on RPMI 1640 agar plates. Paper disks (with a diameter of 6 mm) were then placed on these agar plates, and either 10 μg eltrombopag (dissolved in 5 μL DMSO) or 5 μL DMSO (control) was added to each disk. The agar plates were incubated at 25° C., 30° C., or 37° C. for 48 hours and photographed.

For assay [3], the system named is C. neoformans H99. Briefly: XTT-reduction assay of biofilm metabolic activity. It counts as cell-based, Cryptococcus neoformans. As for the experimental part: Cryptococcus biofilms, which are composed of Cryptococcus cells and extracellular matrix, enhance the tolerance of Cryptococcus to antifungal agents (such as amphotericin B) and host defense mechanisms. To assess whether eltrombopag impacts biofilm formation in Cryptococcus, an XTT-reduction assay was used to measure the metabolic activity of C. neoformans cells treated with eltrombopag at 37° C. Briefly, C. neoformans […] cells were cultured in YPD medium at 30° C. overnight. The cells were washed twice with phosphate buffered saline (PBS) and resuspended in RPMI 1640 medium with or without eltrombopag at the indicated concentrations. The cell suspension (0.0005 OD600/mL) was added to a 96-well polystyrene plate and incubated at 37° C. for 24 or 48 hours. […] After incubation, the cells were washed three times with PBS and subjected to XTT reduction assay to quantify formazan formation by measuring the light absorbance at 492 nm. The experiments were performed in triplicate, and the results were presented as mean±standard deviation. Statistical significance for the data sets was determined using a two-tailed t test.

In assay [4] the test system is C. neoformans H99. The assay can be described thus: Capsule size assay (India ink). The format is cell-based, Cryptococcus neoformans. The note with it: 0.06 mg/L, 37° C., 48 hours, versus no eltrombopag treatment. The protocol: (§1) Cryptococcus and Candida species were cultured in yeast extract-peptone-dextrose (YPD) medium (containing 1% yeast extract, 2% peptone, 2% glucose, and optionally 2% agar for preparation of an agar plate). Aspergillus, Fusarium, and Trichophyton species were cultured on potato dextrose agar (PDA) plate (containing 2% potato infusion, […], and 1.5% agar). A microdilution assay was performed to determine minimum inhibitory concentration (MIC), minimum fungicidal concentration (MFC), and fractional inhibitory concentration (FIC) index (FICI) using RPMI 1640 medium buffered with MOPS. Minimal medium (containing 15 mM glucose, 10 mM magnesium sulfate, 29.4 mM potassium dihydrogen phosphate, 13 mM glycine, and 3 μM thiamine hydrochloride; pH 5.5) was used for capsule size assay and melanization assay.
(§2) Cryptococcus capsule, the structure attached to the outer surface of the cell wall and mainly composed of polysaccharides, can increase the resistance of Cryptococcus to host immune response (such as phagocytosis by macrophages) and harsh conditions (such as extreme acidity or alkalinity, high CO2 levels, or iron deprivation). To test whether eltrombopag affects capsule formation in Cryptococcus, C. neoformans H99 and C. deuterogattii R265 cells were cultured overnight in YPD media at 30° C. […] Statistical significance for the data sets was determined using a two-tailed t test.

A further assay concerns C. deuterogattii R265. The assay can be described thus: Capsule size assay (India ink). It counts as cell-based, Cryptococcus deuterogattii. The note with it: 0.06 mg/L, 37° C., 48 hours, versus no eltrombopag treatment. As for the experimental part: as §1, §2
Assay [5] has as its system C. neoformans H99. The assay can be described thus: Melanization assay (L-DOPA). The note with it: 0.03 mg/L (¼ MIC) or 0.06 mg/L (½ MIC); 1 mM L-DOPA, 30° C. It counts as cell-based, Cryptococcus neoformans. As for the experimental part: as §1
Melanin protects Cryptococcus from toxic free radicals produced by the host defense system, and thus melanin production is important for the pathogenicity of Cryptococcus. To study whether eltrombopag has an effect on melanin production in Cryptococcus, 5×10^4 C. neoformans H99 cells were cultured in minimal medium (abbreviated as MM) with or without 1 mM L-DOPA in the presence or absence of eltrombopag. The flasks containing the cultures were wrapped in foil to prevent L-DOPA auto-polymerization. […]

By MIC is commonly meant the smallest concentration in the dilution series that meets the test's criterion for growth inhibition. A lower MIC goes with a more susceptible organism. For `CC1=NN(c2ccc(C)c(C)c2)C(=O)/C1=N\Nc1cccc(-c2cccc(C(=O)O)c2)c1O` [eltrombopag], the MIC in assay [1] (35° C.) is ~0.125 µg/mL (≈ 0.283 µM). The MFCs result in assay [1] (Cryptococcus species) is given as “higher than 64 mg/L”. For the same compound, the “growth kinetics (cell density)” value in the assay with C. neoformans H99 [2] (0.06 mg/L) is reported as “did not affect the growth kinetics”; in the assay on C. neoformans H99 [2] (0.25 mg/L or 0.5 mg/L, 37° C., 96 hours) it was “static growth of C. neoformans was maintained”; in the assay on C. neoformans H99 [2] (0.5, 0.25, 0.125, 0.06 mg/L, 37° C., 4 days), “inhibited the growth of C. neoformans in a dose-dependent manner”. Besides, the inhibition zones entry in the assay with C. deuterogattii 8265 is “significantly larger inhibition zones were observed at 37 °C”. Moreover, the “reduction of metabolic activity compared to the control group” value in the assay with C. neoformans H99 [3] (0.125 mg/L, 37° C., 24 hours) is “more than 70%”. For the same compound, the “biofilm formation (metabolic activity, OD492)” value in the assay with C. neoformans H99 [3] (two-fold serially diluted from 4 to 0.015 mg/L, 48 hours) is reported as “inhibited the formation of C. neoformans biofilms in a dose-dependent manner”. For the same compound, the capsule size result in the assay with C. neoformans H99 [4] and in the assay with C. deuterogattii R265 was “capsule size significantly reduced” each time. Also, the melanin production result with C. neoformans H99 [5] is given as “melanin production in C. neoformans reduced”.
